Broadly, the EC50 is the concentration giving half of the maximal effect. The term Emax denotes the greatest response seen or fitted, relative to the assay's reference.

This note sets out measurements from patent US9056835B2, “LPA2 receptor-specific benzoic acid derivatives” (University of Tennessee Research Foundation, priority 2012, dated 2015).

Read-outs that look alike come from different tables or passages of the source.

The assay deals with LPA2 (Homo sapiens, UniProt Q9HBW0). Briefly: LPA receptor-mediated Ca2+ mobilization assay, LPA2 (RH7777 cells stably expressing LPA2). To be noted: for receptor specificity of activation among established and putative LPA GPCRs: up to 10 μM. Also noted: expressed in transfected cells. The assay is classed as cell-based. The method, then:
Similarity searches were performed separately using each fingerprint to quantitate similarity. Hits meeting the 80% similarity threshold from each search were ranked based on the Tanimoto coefficient measure of similarity to a target molecule NSC12404, and the top 75 unique hits from each fingerprint search were selected for further analysis. […] This selected a diverse subset of 27 compounds for biological evaluation by choosing the middle compounds in each cluster. These 27 compounds were tested in Ca^2+ mobilization assays at a concentration of 10 μM using stable cell lines individually expressing LPA2 and also in vector-transfected control cells. Hits activating LPA2 were further tested using cells expressing the other established and putative LPA GPCRs. […] They arbitrarily selected GRI977143 for further characterization in cell-based assays.
The newly-synthesized compounds were tested for their ability to induce Ca^2+ transients in RH7777 cells stably expressing the LPA2 receptor.
The cells were loaded with Fura-2-acetoxymethyl esther (Fura-2/AM) in Krebs buffer containing 0.01% pluronic acid for 30 min and rinsed with Krebs buffer before measuring Ca^2+ mobilization. The ratio of peak emissions at 510 nm after 2 min of ligand addition was determined for excitation wavelengths of 340 nm/380 nm. All samples were run in quadruplicate. […] The half maximally effective concentration (EC50), and inhibitory constant (Ki) values were calculated by fitting a sigmoid function to dose-response data points using KaleidaGraph software (version 4.1, Synergy Software; […]).
Mouse embryonic fibroblast (MEF) cells were isolated from E13.5 LPA1&2 double knockout (DKO) embryos. MEFs were transduced with empty vector or LPA2-containing lentiviruses and selected with 1.5 μg/ml puromycin. Cells were maintained in Dulbecco's modified Eagle medium (DMEM) supplemented with 10% (V/V) fetal bovine serum (FBS), 2 mM L-glutamine, 100 U/mL penicillin, and 100 μg/mL streptomycin. Serum-free medium contained 0.1% (W/V) BSA in DMEM. The rat intestinal epithelial cell line 6 (IEC-6) was obtained from the American Type Culture Collection (Rockville, Md.) at passage 13; passages 16-21 were used in all experiments. IEC-6 cells were maintained in a humidified 37° C. incubator in an atmosphere of 90% air and 10% CO2. Growth medium consisted of DMEM supplemented with 5% heat inactivated FBS, 10 μg/mL insulin, and 50 μg/mL gentamycin. The composition of the serum-starvation medium was the same as that of the full growth medium except that it contained no FBS. The McArdle rat hepatoma cell line (RH7777) stably expressing LPA2 receptors was a gift from Dr. Fumikazu Okajima (Gunma University, Maebashi, Japan). RH7777 cells stably expressing LPA1 or LPA3 receptors were generated in-house and had been characterized earlier. Wild type and LPA receptor (LPAR) stably transfected RH7777 cells were grown in DMEM supplemented with 10% FBS and 2 mM L-glutamine in the presence of 250 μg/ml G418. Chinese hamster ovary (CHO) cells stably expressing either vector or LPA4 receptor were a kind gift from Dr. Takao Shimizu (Tokyo University; Tokyo, Japan). Cells were cultured in Ham's F12 medium containing 10% FBS, 2 mM L-glutamine, and 350 μg/ml G418. Rat neuroblastoma cells (B103) were transduced with the lentivirus harboring wild type of FLAG-LPA5 and selected with puromycin to establish the stable cell lines. The stable cells were maintained in DMEM supplemented with 10% FBS and 0.4 μg/ml puromycin. GPR87- and P2Y10-expressing CHO cells and vector-transfected control cells were a gift from Dr. Norihisha Fujita (Ritsumeikan University; Shiga, Japan). The highly invasive MM1 rat hepatoma cells (gift from Dr. Michiko Mukai, Osaka University, Japan) were grown in suspension in DMEM supplemented with 10% (V/V) FBS, 2 mM L-glutamine, 100 U/mL penicillin, and 100 μg/mL streptomycin.
In general terms: Calcium flux is commonly read through the fluorescence of an indicator in the cells.

The mark [1] stands for this setting: agonist, Ca2+ mobilization, read-out: LPA2 EC50.

Sequence of LPA2 (Q9HBW0 whole entry): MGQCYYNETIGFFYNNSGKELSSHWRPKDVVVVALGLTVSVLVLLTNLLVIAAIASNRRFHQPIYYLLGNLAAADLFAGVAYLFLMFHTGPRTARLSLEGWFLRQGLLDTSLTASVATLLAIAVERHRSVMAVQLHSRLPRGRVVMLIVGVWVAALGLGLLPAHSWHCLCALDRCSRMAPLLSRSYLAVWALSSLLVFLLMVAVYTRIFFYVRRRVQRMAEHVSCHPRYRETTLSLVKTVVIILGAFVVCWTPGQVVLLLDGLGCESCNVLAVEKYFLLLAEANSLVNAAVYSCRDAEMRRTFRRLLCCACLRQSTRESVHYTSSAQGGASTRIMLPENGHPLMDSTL

Consider octadecenyl thiophosphate [OTP], for which the EC50 under setting [1] amounted to 0.336 µM.
With `O=C(O)c1cc(Cl)c(Cl)cc1C(=O)Nc1ccc2c(c1)C(=O)c1ccccc1-2` [Compound H2L5547924], the “receptor specificity of activation among established and putative LPA GPCRs” value is recorded as “activated only LPA2”. The half-maximal effective concentration (EC50) under setting [1] stood at 2.8 µM.
The corresponding values for `O=C(O)c1ccccc1C(=O)Nc1ccc2c(c1)C(=O)c1ccccc1C2=O` [Compound H2L5828102] are “activated only LPA2” and 3.3 µM.
Turning to `O=C(O)c1ccccc1C(=O)Nc1ccc2c(c1)C(=O)c1ccccc1-2` [NSC12404], the EC50 under setting [1] is 9.5 µM.
For `O=C(O)c1ccccc1SCCCN1C(=O)c2cccc3cccc(c23)C1=O` [GRI977143], the “receptor specificity of activation among established and putative LPA GPCRs” value is reported as “activated only LPA2”. For the same compound, the maximum response (Emax) (Ca2+ transients, RH7777 cells stably expressing LPA2) stood at 64%. The EC50 (Ca2+ transients, RH7777 cells stably expressing LPA2, read-out: EC50 (μM) (RH7777)) stood at 3.3 µM. Also, under setting [1], the 50% effective concentration (EC50) was 3.3 µM.
